In the experiment the target is T1, S1P1 receptor (Homo sapiens, UniProt P21453).
T1 construct: expressed in transfected cells
T1 sequence (P21453 whole entry): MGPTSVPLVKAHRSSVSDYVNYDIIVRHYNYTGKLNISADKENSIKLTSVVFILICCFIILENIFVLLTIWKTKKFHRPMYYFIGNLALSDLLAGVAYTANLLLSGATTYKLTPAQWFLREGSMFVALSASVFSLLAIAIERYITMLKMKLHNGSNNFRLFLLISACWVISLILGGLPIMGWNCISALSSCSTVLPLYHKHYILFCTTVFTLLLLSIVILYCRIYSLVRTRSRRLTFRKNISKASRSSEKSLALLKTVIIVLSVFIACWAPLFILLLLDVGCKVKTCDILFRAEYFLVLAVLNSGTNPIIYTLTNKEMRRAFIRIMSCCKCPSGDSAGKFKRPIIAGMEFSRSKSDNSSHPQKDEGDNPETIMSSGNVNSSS
The experiment can be described thus: S1P1 receptor agonistic activity assay (PathHunter cell strain, chemiluminescent signal detection). The class given is cell-based. The conditions noted are these: PathHunter cells, agonist mode, 37° C. for 90-180 minutes. The method, then:
1. A PathHunter cell strain was thawed according to standard procedures;
2. The cell was seeded in 20 μl 384-well microplates and incubated at 37° C. for an appropriate time.
1. For an agonist assay, the cell was incubated with the sample to be tested to initiate a reaction;
2. The stock to be tested is diluted 5 folds to be a buffer solution;
3. The 5-fold diluted solution (5 μL) was added to the cells and incubated at 37° C. for 90-180 minutes. The solvent concentration was 1%.
1. 12.5 μL or 15 μL of PathHunter detection reagent (50 vol. %) was added in one portion and then incubated for 1 hour at room temperature to generate a detection signal;
2. The microplate was read using a PerkinElmer Envision™ instrument for chemiluminescent signal detection.
1. Compound activity analysis was performed using a CBIS Data Analysis Kit;
2. Calculation formula: % activity=100%×(average RLU of sample to be test-average RLU of solvents)/(average maximum control ligand−average RLU of solvents)
One may read the EC50 as the concentration needed to bring the measured effect to its halfway point. Read a high EC50 as lower potency in that assay. Regarding `O=C1CC2(CCc3c(-c4noc(-c5ccc(Cl)cc5)n4)cccc32)CN1CCO` (centres unmarked) [Example 1], the EC50 is > 100 nM.
Next, `O=C1CC2(CCc3c(-c4noc(-c5cccc(Cl)c5)n4)cccc32)CN1CCO` (centres unmarked) [Example 2]: > 100 nM; `O=C1CC2(CCc3c(-c4noc(-c5ccccc5Cl)n4)cccc32)CN1CCO` (centres unmarked) [Example 3]: > 100 nM; `COc1ccc(-c2nc(-c3cccc4c3CCC43CC(=O)N(CCO)C3)no2)cc1` (centres unmarked) [Example 4]: > 100 nM.
As to `COc1cccc(-c2nc(-c3cccc4c3CCC43CC(=O)N(CCO)C3)no2)c1` (centres unmarked) [Example 5], the EC50 was > 100 nM.
As for `COc1ccccc1-c1nc(-c2cccc3c2CCC32CC(=O)N(CCO)C2)no1` (centres unmarked) [Example 6], the EC50 was > 100 nM.
With `N#Cc1ccc(-c2nc(-c3cccc4c3CCC43CC(=O)N(CCO)C3)no2)cc1` (centres unmarked) [Example 7], the EC50 was > 100 nM.
As to `N#Cc1cccc(-c2nc(-c3cccc4c3CCC43CC(=O)N(CCO)C3)no2)c1` (centres unmarked) [Example 8], the EC50 is > 100 nM.
Next, `CC(C)Oc1ccc(-c2nc(-c3cccc4c3CCC43CC(=O)N(CCO)C3)no2)cc1OC(F)F` (centres unmarked) [Example 10]: ≤ 10 nM.
Take `CC(C)Oc1ccc(-c2nc(-c3cccc4c3CCC43CC(=O)N(CCO)C3)no2)cc1Cl` (centres unmarked) [Example 11]: the EC50 was ≤ 10 nM.
The same measure for `CC(C)Oc1ccc(-c2nc(-c3cccc4c3CCC43CC(=O)N(CCO)C3)no2)c(C#N)c1` (centres unmarked) [Example 12]: > 100 nM; for `CC(C)Oc1ccc(-c2nc(-c3cccc4c3CCC43CC(=O)N(CCO)C3)no2)cc1` (centres unmarked) [Example 13]: > 100 nM.
Consider `O=C1CC2(CCc3c(-c4noc(-c5ccc(OC(F)(F)F)cc5)n4)cccc32)CN1CCO` (centres unmarked) [Example 14], for which the EC50 was > 100 nM.
Next, `O=C1CC2(CCc3c(-c4noc(-c5ccc(OC(F)F)cc5)n4)cccc32)CN1CCO` (centres unmarked) [Example 15]: > 100 nM; `Cc1ccc(-c2nc(-c3cccc4c3CCC43CC(=O)N(CCO)C3)no2)cc1` (centres unmarked) [Example 16]: > 100 nM.
For `CC(C)c1ccc(-c2nc(-c3cccc4c3CCC43CC(=O)N(CCO)C3)no2)cc1` (centres unmarked) [Example 17], the EC50 was > 100 nM.
The same measure for `N#Cc1ccccc1-c1nc(-c2cccc3c2CCC32CC(=O)N(CCO)C2)no1` (centres unmarked) [Example 18]: > 100 nM; for `O=C1CC2(CCc3c(-c4noc(-c5ccc(OCC6CC6)cc5)n4)cccc32)CN1CCO` (centres unmarked) [Example 19]: > 100 nM.
`CC(C)Nc1ncc(-c2nc(-c3cccc4c3CCC43CC(=O)N(CCO)C3)no2)cc1Br` (centres unmarked) [Example 20] showed an EC50 of 10 to 100 nM.
For `CC(C)Oc1ccc(-c2nc(-c3cccc4c3CCC43CC(=O)N(CCO)C3)no2)cc1C#N` (centres unmarked) [Example 21 mixture], the EC50 is ≤ 10 nM.
The same measure for `CC(C)Oc1ccc(-c2nc(-c3cccc4c3CCC43CC(=O)N(CCO)C3)no2)cc1Br` (centres unmarked) [Example 22]: ≤ 10 nM; for `CC(C)Oc1ccc(-c2nc(-c3cccc4c3CCC43CC(=O)N(CCO)C3)no2)cc1S(C)(=O)=O` (centres unmarked) [Example 23]: 10 to 100 nM; for `COCCN1CC2(CCc3c(-c4noc(-c5ccc(OC(C)C)c(C#N)c5)n4)cccc32)CC1=O` (centres unmarked) [Example 24]: ≤ 10 nM.
Regarding `CC(C)Oc1ccc(-c2nc(-c3cccc4c3CCC43CC(=O)N(CCS(C)(=O)=O)C3)no2)cc1C#N` (centres unmarked) [Example 25], the EC50 was ≤ 10 nM.
Next, `CC(C)Oc1ccc(-c2nc(-c3cccc4c3CCC43CC(=O)N(CC(=O)N(C)C)C3)no2)cc1C#N` (centres unmarked) [Example 26]: ≤ 10 nM.
In turn, `CC(C)Oc1ccc(-c2nc(-c3cccc4c3CCC43CC(=O)N(CCN(C)C)C3)no2)cc1C#N` (centres unmarked) [Example 27] came in with an EC50 of 10 to 100 nM.
The same measure for `CC(C)Oc1ccc(-c2nc(-c3cccc4c3CCC43CC(=O)N(CC(=O)O)C3)no2)cc1C#N` (centres unmarked) [Example 28]: ≤ 10 nM; for `CC(C)Oc1ccc(-c2nc(-c3cccc4c3CCC43CC(=O)N(CCCCC(=O)O)C3)no2)cc1C#N` (centres unmarked) [Example 29]: ≤ 10 nM.
Next, `CC(C)Oc1ccc(-c2nc(-c3cccc4c3CCC43CCN(CCO)C3=O)no2)cc1C#N` (centres unmarked) [Example 30]: 10 to 100 nM.

(Values after US10981900B2, “Spiro compound and use thereof” (MEDSHINE DISCOVERY INC., priority 2017, dated 2021).)
